Test results from the supplement of paper PMC11061612.

How the values were obtained:
[1] = tested on: OCI-AML3 (Acute Myeloid Leukemia); test: combination Emax (second highest fraction inhibited in the dose matrix, 72 h); higher = more inhibition; extreme values may be limits of the assay
How it was run: (§1)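 After 24 hours at 37°C and 5% CO2 in 1536-well plates, cells in DMEM/F12 or RPMI plus 10% FBS received two-drug dose matrices for 72 hours. Viability came from CellTiter-Glo 2.0 luminescence and was scaled as inhibition, anchored at 0 by vehicle wells and at 1 by blank wells. Combination Emax is taken as the second-highest inhibition in the matrix, and Bliss excess as the observed combination effect less EA + EB − EA·EB, with EA and EB the single-agent effects.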

[2] = tested on: RPMI-8226 (Plasma Cell Myeloma); test: as above
How it was run: as §1

[3] = tested on: BICR10 (Oral Cavity Carcinoma); test: as above
How it was run: as §1

[4] = tested on: SUP-B15 (B-Lymphoblastic Leukemia); test: as above
How it was run: as §1

[5] = tested on: OCI-AML3 (Acute Myeloid Leukemia); test: Bliss excess, mean over the matrix (fraction); higher = more synergy
How it was run: as §1

[6] = tested on: BICR10 (Oral Cavity Carcinoma); test: as above
How it was run: as §1
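Wherever Bliss excess, mean over the matrix is given: after 72 h of two-drug dosing.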

Compound | combination Emax [1] | combination Emax [2] | combination Emax [3] | combination Emax [4] | Bliss excess [5] | Bliss excess [6]
CN(C)CCCOc1ccc(-c2ccc3ncc4c(c3c2)n(C2CCOCC2)c(=O)n4C)cn1 [AZD0156] + O=C(c1cc(Cc2n[nH]c(=O)c3ccccc23)ccc1F)N1CCN(C(=O)C2CC2)CC1 [Olaparib] (first compound max 3 µM, partner max 3 µM) | 0.392 | 0.421 | 0.348 | 0.675 | 0.128 | 0.0275
C=CCn1c(=O)c2cnc(Nc3ccc(N4CCN(C)CC4)cc3)nc2n1-c1cccc(C(C)(C)O)n1 [AZD1775] + C1CN(CCC1(C(=O)N[C@@H](CCO)C2=CC=C(C=C2)Cl)N)C3=NC=NC4=C3C=CN4 [Capivasertib] (first compound max 3 µM, partner max 3 µM) | 0.914 | 0.822 | 0.829 | 0.954 | 0.0051 | -0.0418
